Source: patent US20170008888A1 (KYORIN PHARMACEUTICAL CO., LTD., priority 2014, published 2017)
Marks after values point to notes of the source that are not given here. Blank lines part the entries; values can stand above or below the molecule they belong to.

Tests used:
MV-4-11 cells = test: MV-4-11 proliferation EC50 assay (CellTiter-Glo); assay type: cell-based; conditions: Homo sapiens, MV4-11, 48 h, read-out: MV-4-11 proliferation EC50, ave. ± S.D.
Method: Human biphenotypic B myelomonocytic leukemia MV-4-11 cells (ATCC, Manassas, Va.) were treated with test compounds at 2e5 cells/ml in IMDM medium containing 10% (v/v) FBS (Life Technologies, Grand Island, N.Y.) and 1×Pen/Strep Amphotericin B (Lonza, Allendale, N.J.). Compounds were tested at 25 μM down by ⅓ in a 9 point serial dilution series. Cells were incubated for 48 h at 37° C. in a humidified atmosphere at 5% CO2. MV-4-11 cell proliferation was then indirectly determined via cellular ATP content using the CellTiter-Glo® Luminescent Cell Viability Assay (Promega, Madison, Wis.) as per the manufacturer's instructions. Briefly, experimental plates were equilibrated at room temperature for 30 minutes. An equal volume of CellTiter-Glo® reagent was added to each well and incubated for 15 minutes at room temperature. Luminescent signal was read using the Wallac 1420 Victor^2 multilabel microplate reader (Perkin Elmer, Waltham, Mass.). EC50 values were determined using GraphPad Prism software v5.04.

[1] = tested on: DNFB-induced ear inflammation mouse model; test: DNFB-induced ear inflammation mouse model: cytokine concentrations in ear tissue; assay type: in vivo, mouse (Balb/c); conditions: Dex 3 mg/kg PO, regimen E
Method: In vivo T-cell mediated immune response was examined in a mouse model of CHS using the hapten dinitrofluorobenzene (DNFB) as the induction agent. […] On Days 0 and 1 (sensitization), 20 μL of 0.5% v/v DNFB in acetone:olive oil (4:1) was applied to each hindpaw of 8 week old male mice (Balb/c, Charles River Laboratories; 10 mice per group unless otherwise noted). On Day 5 (elicitation) 10 μL of 0.2% v/v DNFB in acetone: olive oil (4:1) was applied to the dorsal surface of the right ear of each animal; 10 μL of acetone: olive oil (4:1) was applied to the dorsal surface of the left ear as control. Treatments were administered by group as indicated in the table below; on days when DNFB was used, the QD and the morning dose of BID as appropriate were administered 30 minutes-1 hr. prior to DNFB application. […] Approximately 24 hours after elicitation (Day 6), a 7 mm tissue punch from the central portion of both ears was collected and wet weights measured. The primary functional assessment was the difference in wet weights of the right (DNFB) vs. left (vehicle) ears compared to the vehicle treatment (Vehicle1-S) as an indicator of inflammation (Table 17). Ear tissue punches were flash frozen, stored at −70° C. and analyzed for cytokines (see below).
Cytokine concentrations after DNFB induction and treatment were analyzed in the weighed and flash frozen tissues of the right (DNFB) and left (control) 7 mm ear punches. The ear tissues were stored at −70° C. until prepared for analysis as follows. Left or right ear tissues from the same treatment group were pooled and crushed with mortar and pestle under liquid nitrogen. Tissue representing 7-8 ear punches by weight was homogenized in Buffer A (50 mM HEPES pH 7.4, 100 mM NaCl) containing 1 tablet EDTA-free Protease Inhibitor (Thermo Fisher Scientific, Rockford, Ill.) per 10 mL, 1× Phosphatase Inhibitor Cocktail II (AG Scientific, San Diego, Calif.), and 1 mM PMSF (Sigma, St. Louis, Mo.). Homogenization was performed in Lysing Matrix D tubes (MP Biomedicals, Solon, Ohio), using the FastPrep-24 instrument (MP Biomedicals) at a speed setting of 6 for 4 cycles of 30 seconds, with cooling on ice in between cycles. The tubes were then centrifuged at 1,000×g for 10 min at 4° C. Supernatant was collected and briefly sonicated using the Microson probe sonicator at setting 3 (Misonix, Farmingdale, N.Y.) before centrifuging again at 10,000×g for 10 min at 4° C. The supernatant was ultracentrifuged at 100,000×g for 1 h at 4° C. in the Optima Max-E (Beckman Coulter, Indianapolis, Ind.) to separate soluble and membrane protein fractions. The soluble (supernatant) fraction was collected and protein concentrations determined using the Dc protein kit (Bio-Rad, Hercules, Calif.). Soluble ear proteins were analyzed in triplicate for cytokine response at a final protein concentration of 4 mg/ml using the Bio-Plex Pro Mouse Cytokine 23-Plex panel (Bio-Rad) as per manufacturer's protocols. Magnetic beads were read on the Bio-Plex MAGPIX multiplex reader instrument using the accompanying xPONENT 4.2 acquisition software (Bio-Rad Laboratories, Hercules, Calif.). Data were analyzed via the Bio-Plex Manager software v6.1 (Bio-Rad Laboratories). Response was calculated as a percentage of the cytokine concentrations measured in the right (DNFB) ears of vehicle 1 dosed (S regimen, i.e. dosed Day 0-5) mice (Table 18).

[2] = tested on: DNFB-induced ear inflammation mouse model; test: DNFB-induced ear inflammation (contact hypersensitivity) mouse model: ear weight; assay type: in vivo, mouse (Balb/c); conditions: 3 mg/kg PO, QD on Day 5 (elicitation)
Method: In vivo T-cell mediated immune response was examined in a mouse model of CHS using the hapten dinitrofluorobenzene (DNFB) as the induction agent. Method for sensitization and elicitation of DNFB-induced CHS was modified from Xu et al. J. Exp. Med. 1996. 183:1001-1012. On Days 0 and 1 (sensitization), 20 μL of 0.5% v/v DNFB in acetone:olive oil (4:1) was applied to each hindpaw of 8 week old male mice (Balb/c, Charles River Laboratories; 10 mice per group unless otherwise noted). On Day 5 (elicitation) 10 μL of 0.2% v/v DNFB in acetone: olive oil (4:1) was applied to the dorsal surface of the right ear of each animal; 10 μL of acetone: olive oil (4:1) was applied to the dorsal surface of the left ear as control. Treatments were administered by group as indicated in the table below; on days when DNFB was used, the QD and the morning dose of BID as appropriate were administered 30 minutes-1 hr. prior to DNFB application. […] Approximately 24 hours after elicitation (Day 6), a 7 mm tissue punch from the central portion of both ears was collected and wet weights measured. The primary functional assessment was the difference in wet weights of the right (DNFB) vs. left (vehicle) ears compared to the vehicle treatment (Vehicle1-S) as an indicator of inflammation (Table 17). Ear tissue punches were flash frozen, stored at −70° C. and analyzed for cytokines (see below). Body weights of the mice were measured at baseline and at end of study, and there were no significant changes in weight in any treatment group during the study (data not shown).

[3] = tested on: Imiquimod-induced psoriasis mouse model; test: Imiquimod (IMQ)-induced acute model of psoriasis in mouse: skin thickness, erythema, scaling; assay type: in vivo, mouse (Balb/c)
Method: Material and methods for the IMQ study were adapted from van der Fits et al. J Immunol., 2009, 182: 5836-5845. Eight week old male Balb/c mice (Harlan) received a daily topical dose of 62.5 mg 5% IMQ cream (Aldara™, Medicis) equivalent to 3.125 mg IMQ, on the shaved back (approximately 2×3.5 cm patch) and dorsal surface of the right ear for 6 consecutive days. Sham control mice were treated similarly with control cream (Hydrous Emulsified Base, HEB, Cream, Fagron). Treatments were administered by group as indicated in Table 1 below prior to daily application of IMQ (QD and morning dose of BID regimens), n=10 for all groups. […] Body weights and scoring of induced clinical disease were performed after dosing (Days 1-7) but prior to IMQ application (Days 1-6) on Days 1 (baseline), 3, 4, 6, 8. Mice were sacrificed on Day 8 and treated back skin tissue collected and divided for fixation for histopathology (a 12 mm punch in mid-back) the remainder flash frozen; right (IMQ) and left (control) ears, spleen (after wet weight) and lung were also individually collected and flash frozen, and stored at −70° C. for subsequent biochemical analyses. Statistics were performed using one-way ANOVA with Dunnett's post-hoc test comparing treated groups to the vehicle group, using InStat software (GraphPad, La Jolla, Calif.).
The severity of clinical disease was assessed by
1) skin thickness dial gauge micrometer measurements (duplicate) of the ears and the dorsal skin at the midline of the back (equal to double true measure of dorsal skin thickness)
2) erythema and scaling, independently scored on a scale from 0-4: 0=none, 1=slight, 2=moderate, 3=marked, 4=very marked with intermediate increments of 0.5 allowed.
Clinical disease assessments included erythema, scaling, skin thickness and cumulative disease severity scores and the change in skin thickness of the ears and dorsal back skin over time compared to baseline measurements (Tables 19 and 20). Body weights of the mice were measured at baseline and at end of study, and there were no significant changes in weight in any treatment group during the study (data not shown).

[4] = Day 1 (baseline), Dexamethasone 3 mg/kg PO
[5] = Day 3, Dexamethasone 3 mg/kg PO
[6] = Day 4, Dexamethasone 3 mg/kg PO
[7] = Day 6, Dexamethasone 3 mg/kg PO
[8] = Day 8, Dexamethasone 3 mg/kg PO

EC50 (MV-4-11 cells): 1120 nM
SMILES: CN1C(=O)c2ccccc2N(C)c2nc(Nc3ccc(N4CCC(O)CC4)cn3)ncc21 [Compound IV-5 in WO 2010/080712]

SMILES: C[C@@H]1C[C@H]2[C@@H]3CCC4=CC(=O)C=C[C@]4(C)[C@@]3(F)[C@@H](O)C[C@]2(C)[C@@]1(O)C(=O)CO [Dexamethasone, reference compound]
IFN-γ: Mean % Cytokine Concentration in DNFB Treated Right Ears versus Vehicle 1-Dosed (S) Mice [1]: 74%
IL-1α: Mean % Cytokine Concentration in DNFB Treated Right Ears versus Vehicle 1-Dosed (S) Mice [1]: 189%
IL-1β: Mean % Cytokine Concentration in DNFB Treated Right Ears versus Vehicle 1-Dosed (S) Mice [1]: 53%
IL-3: Mean % Cytokine Concentration in DNFB Treated Right Ears versus Vehicle 1-Dosed (S) Mice [1]: 76%
IL-5: Mean % Cytokine Concentration in DNFB Treated Right Ears versus Vehicle 1-Dosed (S) Mice [1]: 58%
IL-6: Mean % Cytokine Concentration in DNFB Treated Right Ears versus Vehicle 1-Dosed (S) Mice [1]: 36%
IL-12 (p40): Mean % Cytokine Concentration in DNFB Treated Right Ears versus Vehicle 1-Dosed (S) Mice [1]: 59%
IL-13: Mean % Cytokine Concentration in DNFB Treated Right Ears versus Vehicle 1-Dosed (S) Mice [1]: 81%
IL-17A: Mean % Cytokine Concentration in DNFB Treated Right Ears versus Vehicle 1-Dosed (S) Mice [1]: 63%
KC: Mean % Cytokine Concentration in DNFB Treated Right Ears versus Vehicle 1-Dosed (S) Mice [1]: 29%
MCP-1: Mean % Cytokine Concentration in DNFB Treated Right Ears versus Vehicle 1-Dosed (S) Mice [1]: 41%
MIP-1α: Mean % Cytokine Concentration in DNFB Treated Right Ears versus Vehicle 1-Dosed (S) Mice [1]: 53%
MIP-1β: Mean % Cytokine Concentration in DNFB Treated Right Ears versus Vehicle 1-Dosed (S) Mice [1]: 39%
RANTES: Mean % Cytokine Concentration in DNFB Treated Right Ears versus Vehicle 1-Dosed (S) Mice [1]: 42%
TNF-α: Mean % Cytokine Concentration in DNFB Treated Right Ears versus Vehicle 1-Dosed (S) Mice [1]: 74%
% Reduction Weight Increase Vs. Vehicle 1 Weight Increase [2]: −60.0%
Clinical Score Erythema (0-4), AVG Score [3, 4]: 0
Clinical Score Scaling (0-4), AVG Score [3, 4]: 0
% Mean DORSAL BACK THICKNESS versus day 1, AVG [3, 5]: 3.08%
% Mean LEFT EAR THICKNESS [Control] versus day 1, AVG [3, 5]: −9.64%
% Mean RIGHT EAR THICKNESS [IMQ] versus day 1, AVG [3, 5]: −5.32%
Clinical Score Erythema (0-4), AVG Score [3, 5]: 0.05
Clinical Score Scaling (0-4), AVG Score [3, 5]: 0
% Mean DORSAL BACK THICKNESS versus day 1, AVG [3, 6]: 13.71%
% Mean LEFT EAR THICKNESS [Control] versus day 1, AVG [3, 6]: −10.38%
% Mean RIGHT EAR THICKNESS [IMQ] versus day 1, AVG [3, 6]: −2.08%
Clinical Score Erythema (0-4), AVG Score [3, 6]: 0.65
Clinical Score Scaling (0-4), AVG Score [3, 6]: 0.2
% Mean DORSAL BACK THICKNESS versus day 1, AVG [3, 7]: 13.04** %
% Mean LEFT EAR THICKNESS [Control] versus day 1, AVG [3, 7]: −9.61%
% Mean RIGHT EAR THICKNESS [IMQ] versus day 1, AVG [3, 7]: 10.54** %
Clinical Score Erythema (0-4), AVG Score [3, 7]: 0.45
Clinical Score Scaling (0-4), AVG Score [3, 7]: 0.5
% Mean DORSAL BACK THICKNESS versus day 1, AVG [3, 8]: 14.32** %
% Mean LEFT EAR THICKNESS [Control] versus day 1, AVG [3, 8]: −14.05%
% Mean RIGHT EAR THICKNESS [IMQ] versus day 1, AVG [3, 8]: 10.40** %
Clinical Score Erythema (0-4), AVG Score [3, 8]: 0.45
Clinical Score Scaling (0-4), AVG Score [3, 8]: 0.35
